Reference: paper PMC9698730 (Molecules, 2022)
“And” between values parts separate entries of the source, which are not always exact repeats. Equal entries are not always repeated. “Also recorded” adds a separate entry of the source. Where two headings read alike, the source gives them in different places.

Legend:
viral replication = settings: cited from earlier work
NTD wt [1] = molecular target: T1, NTD wt (Severe acute respiratory syndrome coronavirus 2, UniProt P0DTC9); type: binding
DNA-FL complex = assay: Dynamic light scattering, competition with DNA binding to FL; parameters: species or system SARS-CoV-2; settings: for Size, Intensity: percentage in parentheses / Size, Volume: percentage in parentheses / Size (nm) Volume / Size (nm) Intensity: DNA + ligand, 4 µM, FL 4 µM; for Size (nm) Volume: without ligand 15.7 ± 1.2; for Size (nm) Intensity: without ligand 25.3 ± 3.1
Protocol: To further address whether the ligands may modify the oligomeric status of the FL protein, we performed dynamic light scattering experiments. FL (2 µM) presented a main peak at 12.0 ± 0.6 nm in volume (14 nm in intensity); the size of the complex decreased to 10.3 and 7.8 ± 0.3 nm upon addition of 2 µM and 6 µM enkephalin, respectively (Figure 6D). […] We then tested whether ligand binding to FL could be competitive with nucleic acids binding.
(§1) The experiments were performed on a Malvern nanosizer apparatus. The temperature was set at 20 °C, and 10 scans with a duration of 10 s each were acquired in duplicate for each time and sample. The size distribution in the intensity of the scattered light was obtained using the Cumulants method from the instrumental software, yielding the hydrodynamic diameter. The N NTD concentration was in the range of 40–60 μM, the FL concentration was in the range of 1 to 10 µM in 20 mM Tris buffer at pH = 7.9 containing 100 mM NaCl. The melting experiments were performed at a heating rate of 1 °C/min over the range 30 °C to 65 °C in sealed disposable cuvettes. The apparent melting temperature, Tm, was determined by the first derivative of the melting curve.

FL [2] = type: binding, SARS-CoV-2; settings: for Size (nm) Intensity / Size (nm) Volume: pH 7.9
RNA-FL complex = type: binding, SARS-CoV-2; settings: for competition with RNA / nucleic acids binding to FL: DLS, in words
Protocol: To further address whether the ligands may modify the oligomeric status of the FL protein, we performed dynamic light scattering experiments. […] We then tested whether ligand binding to FL could be competitive with nucleic acids binding.
as §1

FL [3] = type: binding
SARS-CoV-2 = settings: cited from earlier work
[4] = test system: model of reconstituted lung epithelium; settings: cited from earlier work
NTD wt [5] = molecular target: T1, NTD wt; settings: cited from earlier work
[6] = test system: patients hospitalized for mild and moderate COVID-19; settings: human, in vivo; cited from earlier work

Row | Molecule | effect on viral replication (viral replication; ref [17],[18],[34],[35]) | Size, Intensity: percentage in parentheses (FL [2]) | Size, Volume: percentage in parentheses (FL [2]) | effect on size (oligomeric status) of FL (FL [2]) | Size (nm) Intensity (FL [2]) | Size (nm) Volume (FL [2]) | competition with RNA / nucleic acids binding to FL (RNA-FL complex) | also measured
1 | Hemin | decrease viral replication |  |  |  |  |  |  | effect on viral replication (viral replication; hemin binding to N, ref [32]): reduce viral replication
2 | RPKPQQF-OH [Substance P (1-7), Substance P (1-7) RPKPQQF-OH] |  | 10.3 ± 0.6 (50%) 8.0 ± 1.0 (76%) | 9.5 ± 0.6 (98%) 7.2 ± 1.1 (99%) | a larger decrease | 10.3 ± 0.6 (50%) 8.0 ± 1.0 (76%) nm | 9.5 ± 0.6 (98%) 7.2 ± 1.1 (99%) nm | competitive with nucleic acids binding to FL; also recorded: consistent with a competition | binding to NTD by SPR, in words (NTD wt [1]): observed; Size, Intensity: percentage in parentheses (DNA-FL complex): 70%; Size, Volume: percentage in parentheses (DNA-FL complex): 91%; Size (nm) Volume (DNA-FL complex): 10.1 ± 0.6 nm; Size (nm) Intensity (DNA-FL complex): 13.8 ± 0.6 nm; Size, Intensity: percentage in parentheses (RNA-FL complex; RNA + ligand, 4 µM, FL 4 µM): 75%; Size, Volume: percentage in parentheses (RNA-FL complex; RNA + ligand, 4 µM, FL 4 µM): 97%; Size (nm) Volume (RNA-FL complex; RNA + ligand, 4 µM, FL 4 µM, without ligand 15.1 ± 1.1): 11.3 ± 0.6 nm; Size (nm) Intensity (RNA-FL complex; RNA + ligand, 4 µM, FL 4 µM, without ligand 21.5 ± 2.0): 16.1 ± 0.6 nm; binding to FL by SPR, in words (FL [3]): bound the N FL protein as measured by SPR; also recorded: observed
3 | COc1ccc2cc([C@H](C)C(=O)O)ccc2c1 [Naproxen, naproxen] |  | 12.2 ± 0.5 (40%) 8.7 ± 0.3 (60%) | 11.3 ± 0.4 (99%) 8.9 ± 0.3 (96%) | the same trend was observed | 12.2 ± 0.5 (40%) 8.7 ± 0.3 (60%) nm | 11.3 ± 0.4 (99%) 8.9 ± 0.3 (96%) nm |  | viral load of infected cells (SARS-CoV-2): reduced the viral load of infected cells; effect on viral replication (viral replication): decrease viral replication; protection of lung cells against viral injury [4]: protected lung cells against viral injury; replication and inflammation in reconstituted lung epithelium [4]: inhibited replication and reduced inflammation; binding to N-terminal domain in vitro (NTD wt [5]): bound to SARS-CoV-2 N-terminal domain (NTD) in vitro
4 | tetrahydrofolate [THF] |  |  |  |  |  |  |  | effect on viral replication (viral replication; ref [35]): reduction of viral replication
5 | Leu-enkephalin |  | 12.6 ± 0.6 (31%) 8.7 ± 0.2 (40%) | 11.3 ± 0.6 (96%) 8.0 ± 0.3 (100%) | decreased its size as compared to the size of N alone | 12.6 ± 0.6 (31%) 8.7 ± 0.2 (40%) nm | 11.3 ± 0.6 (96%) 8.0 ± 0.3 (100%) nm | competitive with nucleic acids binding to FL; also recorded: consistent with a competition | effect on size of N-DNA complex, in words (DNA-FL complex; DLS, Figure 6E): the size of the N-DNA complex was reduced; Size, Intensity: percentage in parentheses (DNA-FL complex): 89%; Size, Volume: percentage in parentheses (DNA-FL complex): 99%; Size (nm) Volume (DNA-FL complex): 9.0 ± 1.7 nm; Size (nm) Intensity (DNA-FL complex): 10.5 ± 1.2 nm
6 | COc1ccc2c(c1)c(CC(=O)O)c(C)n2C(=O)c1ccc(Cl)cc1 [Indomethacin, indomethacin] | decrease viral replication | 11.0 ± 0.4 (30%) 6.7 ± 0.3 (60%) | 10.3 ± 0.5 (100%) 6.3 ± 0.4 (96%) | a larger decrease | 11.0 ± 0.4 (30%) 6.7 ± 0.3 (60%) nm | 10.3 ± 0.5 (100%) 6.3 ± 0.4 (96%) nm | consistent with a competition | patient recovery [6]: helped the patients to recover
7 | Dihydrofolate [DHF] | decrease viral replication |  |  |  |  |  | consistent with a competition | Kd (NTD wt [1]; SPR, NTD, ligand range 0.3–10.0 µM, 20 mM HEPES, 100 mM NaCl, 0.05% Tween): ~1 µM and 1 µM; effect on viral replication (viral replication; ref [35]): reduction of viral replication; binding to FL by SPR, in words (FL [3]): binding of DHF to the full-length protein was smaller
